Measured values as given in PubChem BioAssay (NCI).
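Step 1: Grow cells in 96-well plates. Step 2: Expose to compound for 48 hours at 5 concentrations. Step 3: Interpolate endpoints linearly; if unreached, use highest concentration. Definition used: TGI = concentration required for complete inhibition of growth.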

Key:
Assay in all cases: DTP human tumour cell line panel, 48 h
[1] = test system: COLO 205 colon
[2] = test system: NCI-H460 lung
[3] = test system: OVCAR-4 ovarian
[4] = test system: 786-0 renal
[5] = test system: SN12C renal
[6] = test system: NCI-H522 lung
[7] = test system: SNB-75 CNS
[8] = test system: BT-549 breast
[9] = test system: SF-295 CNS
[10] = test system: K-562 leukemia
[11] = test system: A549 NSCLC
[12] = test system: NCI-H23 lung
[13] = test system: DU-145 prostate
[14] = test system: ACHN renal
[15] = test system: UACC-257 melanoma
[16] = test system: MALME-3M melanoma
[17] = test system: MOLT-4 leukemia
[18] = test system: TK-10 renal
[19] = test system: NCI-H226 lung
[20] = test system: HT29 colon
[21] = test system: CCRF-CEM leukemia
[22] = test system: A498 renal
[23] = test system: M14 melanoma
[24] = test system: HCT-116 colon
[25] = test system: HOP-92 NSCLC
[26] = test system: SF-539 CNS
[27] = test system: RPMI-8226 leukemia
[28] = test system: SNB-19 CNS
[29] = test system: SK-MEL-28 melanoma
[30] = test system: MDA-N
[31] = test system: UACC-62 melanoma
[32] = test system: SK-MEL-5 melanoma
[33] = test system: OVCAR-3 ovarian
[34] = test system: MDA-MB-435
[35] = test system: HCT-15 colon
[36] = test system: T-47D breast
[37] = test system: KM12 colon
[38] = test system: RXF 393 renal
[39] = test system: SK-MEL-2 melanoma
[40] = test system: CAKI-1 renal
[41] = test system: UO-31 renal
[42] = test system: HOP-62 NSCLC
[43] = test system: SK-OV-3 ovarian
[44] = test system: LOX IMVI melanoma
[45] = test system: NCI/ADR-RES ovarian
[46] = test system: IGROV1 ovarian
[47] = test system: SW-620 colon
[48] = test system: PC-3 prostate
[49] = test system: HS 578T breast
[50] = test system: HL-60(TB) leukemia
[51] = test system: MDA-MB-231 breast
[52] = test system: SF-268 CNS
[53] = test system: SR leukemia
[54] = test system: OVCAR-5 ovarian
[55] = test system: OVCAR-8 ovarian
[56] = test system: MCF7 breast
[57] = test system: EKVX NSCLC
[58] = test system: U251 CNS
[59] = test system: HCC-2998 colon

## CC(=O)O[C@H]1CC[C@@]2(C)C(=CC[C@@H]3[C@@H]2CC[C@]2(C)C(=N/O)/C(=C/c4ccc([N+](=O)[O-])cc4)C[C@@H]32)C1
[1]
  TGI: 10 µM
[2]
  TGI: > 100 µM
[3]
  TGI: > 100 µM
[4]
  TGI: 27.3 µM
[5]
  TGI: 87.3 µM
[6]
  TGI: 8.94 µM
[7]
  TGI: 40.5 µM
[8]
  TGI: 14 µM
[9]
  TGI: 20.7 µM
[10]
  TGI: > 100 µM
[11]
  TGI: > 100 µM
[12]
  TGI: 13.2 µM
[13]
  TGI: 31.4 µM
[14]
  TGI: > 100 µM
[15]
  TGI: 1.55 µM
[16]
  TGI: > 100 µM
[17]
  TGI: > 100 µM
[18]
  TGI: 55.3 µM
[19]
  TGI: 67.7 µM
[20]
  TGI: > 100 µM
[21]
  TGI: > 100 µM
[22]
  TGI: 25.5 µM
[23]
  TGI: 47.7 µM
[24]
  TGI: > 100 µM
[25]
  TGI: 62 µM
[26]
  TGI: > 100 µM
[27]
  TGI: > 100 µM
[28]
  TGI: 37.1 µM
[29]
  TGI: > 100 µM
[30]
  TGI: > 100 µM
[31]
  TGI: 20.5 µM
[32]
  TGI: 7.95 µM
[33]
  TGI: 11.3 µM
[34]
  TGI: 29.3 µM
[35]
  TGI: > 100 µM
[36]
  TGI: 2.46 µM
[37]
  TGI: > 100 µM
[38]
  TGI: > 100 µM
[39]
  TGI: 17.5 µM
[40]
  TGI: 6.1 µM
[41]
  TGI: 26 µM
[42]
  TGI: > 100 µM
[43]
  TGI: > 100 µM
[44]
  TGI: > 100 µM
[45]
  TGI: > 100 µM
[46]
  TGI: 55.8 µM
[47]
  TGI: > 100 µM
[48]
  TGI: > 100 µM
[49]
  TGI: 8.46 µM
[50]
  TGI: 66.1 µM
[51]
  TGI: 50.1 µM
[52]
  TGI: > 100 µM

## Cc1c(C(=O)O)c2cc3ccccc3cc2c(=O)n1C
[53]
  TGI: > 10 µM
[2]
  TGI: > 10 µM
[54]
  TGI: > 10 µM
[3]
  TGI: > 10 µM
[4]
  TGI: > 10 µM
[5]
  TGI: > 10 µM
[6]
  TGI: > 10 µM
[7]
  TGI: > 10 µM
[55]
  TGI: > 10 µM
[8]
  TGI: > 10 µM
[9]
  TGI: > 10 µM
[56]
  TGI: > 10 µM
[11]
  TGI: > 10 µM
[12]
  TGI: > 10 µM
[14]
  TGI: > 10 µM
[15]
  TGI: > 10 µM
[16]
  TGI: > 10 µM
[18]
  TGI: > 10 µM
[19]
  TGI: > 10 µM
[20]
  TGI: > 10 µM
[23]
  TGI: > 10 µM
[25]
  TGI: > 10 µM
[26]
  TGI: > 10 µM
[28]
  TGI: > 10 µM
[30]
  TGI: > 10 µM
[31]
  TGI: > 10 µM
[33]
  TGI: > 10 µM
[34]
  TGI: > 10 µM
[35]
  TGI: > 10 µM
[36]
  TGI: > 10 µM
[37]
  TGI: > 10 µM
[38]
  TGI: > 10 µM
[39]
  TGI: > 10 µM
[41]
  TGI: > 10 µM
[57]
  TGI: > 10 µM
[43]
  TGI: > 10 µM
[44]
  TGI: > 10 µM
[45]
  TGI: > 10 µM
[46]
  TGI: > 10 µM
[58]
  TGI: > 10 µM
[47]
  TGI: > 10 µM
[59]
  TGI: > 10 µM
[48]
  TGI: > 10 µM
[49]
  TGI: > 10 µM
[50]
  TGI: > 10 µM
[51]
  TGI: > 10 µM
[52]
  TGI: > 10 µM

## O=C(CCCc1ccccn1)c1ccccc1
[1]
  TGI: > 100 µM
[2]
  TGI: > 100 µM
[54]
  TGI: > 100 µM
[3]
  TGI: > 100 µM
[4]
  TGI: > 100 µM
[5]
  TGI: > 100 µM
[6]
  TGI: > 100 µM
[7]
  TGI: > 100 µM
[55]
  TGI: > 100 µM
[8]
  TGI: > 100 µM
[9]
  TGI: > 100 µM
[56]
  TGI: > 100 µM
[10]
  TGI: > 100 µM
[11]
  TGI: > 100 µM
[12]
  TGI: > 100 µM
[13]
  TGI: > 100 µM
[14]
  TGI: > 100 µM
[15]
  TGI: > 100 µM
[16]
  TGI: > 100 µM
[17]
  TGI: > 100 µM
[18]
  TGI: > 100 µM
[19]
  TGI: > 100 µM
[20]
  TGI: > 100 µM
[21]
  TGI: > 100 µM
[22]
  TGI: > 100 µM
[23]
  TGI: > 100 µM
[24]
  TGI: > 100 µM
[25]
  TGI: > 100 µM
[26]
  TGI: > 100 µM
[27]
  TGI: > 100 µM
[28]
  TGI: > 100 µM
[29]
  TGI: > 100 µM
[30]
  TGI: > 100 µM
[31]
  TGI: > 100 µM
[32]
  TGI: > 100 µM
[33]
  TGI: > 100 µM
[34]
  TGI: > 100 µM
[35]
  TGI: > 100 µM
[36]
  TGI: > 100 µM
[38]
  TGI: > 100 µM
[39]
  TGI: > 100 µM
[40]
  TGI: > 100 µM
[41]
  TGI: > 100 µM
[57]
  TGI: > 100 µM
[42]
  TGI: > 100 µM
[43]
  TGI: > 100 µM
[44]
  TGI: > 100 µM
[45]
  TGI: > 100 µM
[46]
  TGI: > 100 µM
[58]
  TGI: > 100 µM
[47]
  TGI: > 100 µM
[59]
  TGI: > 100 µM
[48]
  TGI: > 100 µM
[49]
  TGI: > 100 µM
[50]
  TGI: > 100 µM
[51]
  TGI: > 100 µM
[52]
  TGI: > 100 µM

## Nc1nc(NNc2ccc(Cl)c(Cl)c2)cc(=O)[nH]1
[1]
  TGI: 61.1 µM
[53]
  TGI: > 100 µM
[2]
  TGI: > 100 µM
[54]
  TGI: > 100 µM
[3]
  TGI: > 100 µM
[4]
  TGI: 67.5 µM
[5]
  TGI: > 100 µM
[55]
  TGI: > 100 µM
[8]
  TGI: 82.5 µM
[9]
  TGI: > 100 µM
[56]
  TGI: 72.5 µM
[10]
  TGI: 54.7 µM
[11]
  TGI: > 100 µM
[12]
  TGI: > 100 µM
[13]
  TGI: > 100 µM
[14]
  TGI: > 100 µM
[15]
  TGI: > 100 µM
[16]
  TGI: > 100 µM
[17]
  TGI: 90.3 µM
[18]
  TGI: > 100 µM
[19]
  TGI: > 100 µM
[20]
  TGI: > 100 µM
[21]
  TGI: > 100 µM
[22]
  TGI: > 100 µM
[23]
  TGI: > 100 µM
[24]
  TGI: > 100 µM
[25]
  TGI: 79.8 µM
[26]
  TGI: > 100 µM
[27]
  TGI: > 100 µM
[28]
  TGI: > 100 µM
[29]
  TGI: > 100 µM
[30]
  TGI: > 100 µM
[32]
  TGI: > 100 µM
[33]
  TGI: 59.5 µM
[34]
  TGI: 74.1 µM
[35]
  TGI: 58.7 µM
[37]
  TGI: > 100 µM
[38]
  TGI: 67.5 µM
[41]
  TGI: > 100 µM
[57]
  TGI: > 100 µM
[42]
  TGI: > 100 µM
[44]
  TGI: 33.1 µM
[45]
  TGI: > 100 µM
[46]
  TGI: > 100 µM
[58]
  TGI: 68.3 µM
[47]
  TGI: 61.1 µM
[59]
  TGI: 44.7 µM
[48]
  TGI: > 100 µM
[49]
  TGI: > 100 µM
[50]
  TGI: 64.4 µM
[51]
  TGI: > 100 µM
[52]
  TGI: > 100 µM
